Test results: patent publication US20250049035A1, “MICROBIOCIDAL BICYCLE HETEROCYCLIC DERIVATIVES” (SYNGENTA CROP PROTECTION AG, priority 2021, published 2025)

Key:
[1] = system: Mycosphaerella graminicola (Septoria tritici); test: Mycosphaerella graminicola (Septoria tritici) / liquid culture (Septoria blotch); assay type: cell-based; details: Zymoseptoria tritici, liquid culture (potato dextrose broth), growth inhibition photometrically 4-5 days after application, compared to untreated control
Procedure: (§1) Example B15: Mycosphaerella graminicola (Septoria tritici/Liquid Culture (Septoria Blotch) Conidia of the fungus from cryogenic storage are directly mixed into a nutrient broth (potato dextrose broth). After placing a DMSO solution of test compound into a microtiter plate (96-well format), the nutrient broth containing the fungal spores is added. The test plates are incubated at 24° C. and the inhibition of growth is determined photometrically 4-5 days after application.

[2] = system: Botryotinia fuckeliana (Botrytis cinerea); test: Botryotinia fuckeliana (Botrytis cinerea) / liquid culture (gray mould); assay type: cell-based; details: liquid culture (Vogels broth), growth inhibition photometrically 3-4 days after application, compared to untreated control
Procedure: as §1, with “B2: Botryotinia fuckeliana (Botrytis cinerea)/Liquid” for “B15: Mycosphaerella graminicola (Septoria tritici/Liquid”, “(Gray Mould)” for “(Septoria Blotch)”, “(Vogels” for “(potato dextrose”, “3-4” for “4-5”

Alternaria solani = Alternaria solani / tomato / leaf disc (early blight); assay type: in vivo; details: foliar, tomato leaf disks cv. Baby, inoculated 2 days after application, assessed 5-7 days after application, compared to untreated control
Procedure: Example B1: Alternaria solani/Tomato/Leaf Disc (Early Blight) Tomato leaf disks cv. Baby are placed on agar in multiwell plates (24-well format) and sprayed with the formulated test compound diluted in water. The leaf disks are inoculated with a spore suspension of the fungus 2 days after application. The inoculated leaf disks are incubated at 23° C./21° C.

Sclerotinia sclerotiorum = Sclerotinia sclerotiorum / liquid culture (cottony rot); assay type: cell-based; details: liquid culture (potato dextrose broth), growth inhibition photometrically 3-4 days after application, compared to untreated control
Procedure: Example B14: Sclerotinia sclerotiorum/Liquid Culture (Cottony Rot) Mycelia fragments of a newly grown liquid culture of the fungus are directly mixed into a nutrient broth (potato dextrose broth). After placing a DMSO solution of test compound into a microtiter plate (96-well format) the nutrient broth containing the fungal material is added. The test plates are incubated at 24° C. and the inhibition of growth is determined photometrically 3-4 days after application.

[3] = system: Phaeosphaeria nodorum (Septoria nodorum); test: Phaeosphaeria nodorum (Septoria nodorum) / wheat / leaf disc preventative (glume blotch); assay type: in vivo; details: Parastagonospora nodorum, foliar, wheat leaf segments cv. Kanzler, inoculated 2 days after application, assessed 5-7 days after application, compared to untreated control
Procedure: Example B8: Phaeosphaeria Nodorum (Septoria nodorum)/Wheat/Leaf Disc Preventative (Glume Blotch) Wheat leaf segments cv. Kanzler are placed on agar in a multiwell plate (24-well format) and sprayed with the formulated test compound diluted in water. The leaf disks are inoculated with a spore suspension of the fungus 2 days after application. The inoculated test leaf disks are incubated at 20° C. and 75% relative humidity under a light regime of 12 h light/12 h darkness in a climate cabinet and the activity of a compound is assessed as percent disease control compared to untreated when an appropriate level of disease damage appears in untreated check leaf disks (5-7 days after application).

[4] = system: Mycosphaerella arachidis (Cercospora arachidicola); test: Mycosphaerella arachidis (Cercospora arachidicola) / liquid culture (early leaf spot); assay type: cell-based; details: liquid culture (potato dextrose broth), growth inhibition photometrically 4-5 days after application, compared to untreated control
Procedure: as §1, with “B10:” for “B15:”, “arachidis (Cercospora arachidicola)/Liquid” for “graminicola (Septoria tritici/Liquid”, “(Early Leaf Spot)” for “(Septoria Blotch)”, “broth)” for “broth).”

[5] = system: Glomerella lagenarium (Colletotrichum lagenarium); test: Glomerella lagenarium (Colletotrichum lagenarium) / liquid culture (anthracnose); assay type: cell-based; details: Colletotrichum orbiculare, liquid culture (potato dextrose broth), growth inhibition photometrically 3-4 days after application, compared to untreated control
Procedure: as §1, with “B3: Glomerella lagenarium (Colletotrichum lagenarium)/Liquid” for “B15: Mycosphaerella graminicola (Septoria tritici/Liquid”, “(Anthracnose)” for “(Septoria Blotch)”, “measured” for “determined”, “3-4” for “4-5”

Fusarium culmorum = test: microbe, parasite or virus in culture; assay type: cell-based; details: read-out: control of Fusarium culmorum
[6] = system: Monographella nivalis (Microdochium nivale); test: Monographella nivalis (Microdochium nivale) / liquid culture (foot rot cereals); assay type: cell-based; details: liquid culture (potato dextrose broth), growth inhibition photometrically 4-5 days after application, compared to untreated control
Procedure: as §1, with “B9: Monographella nivalis (Microdochium nivale)/Liquid” for “B15: Mycosphaerella graminicola (Septoria tritici/Liquid”, “(Foot Rot Cereals)” for “(Septoria Blotch)”

[7] = system: Blumeria graminis f. sp. tritici (Erysiphe graminis f. sp. tritici); test: Blumeria graminis f. sp. tritici / wheat / leaf disc preventative (powdery mildew); assay type: in vivo; details: foliar, wheat leaf segments cv. Kanzler, inoculated 1 day after application, assessed 6-8 days after application, compared to untreated control
Procedure: Example B4: Blumeria graminis f. sp. tritici (Erysiphe graminis f. sp. tritici)/Wheat/Leaf Disc Preventative (Powdery Mildew on Wheat) Wheat leaf segments cv. Kanzler are placed on agar in a multiwell plate (24-well format) and sprayed with the formulated test compound diluted in water. The leaf disks are inoculated by shaking powdery mildew infected plants above the test plates 1 day after application. The inoculated leaf disks are incubated at 20° C. and 60% relative humidity under a light regime of 24 h darkness followed by 12 h light/12 h darkness in a climate chamber and the activity of a compound is assessed as percent disease control compared to untreated when an appropriate level of disease damage appears on untreated check leaf segments (6-8 days after application).

Pyrenophora teres = Pyrenophora teres / barley / leaf disc preventative (net blotch); assay type: in vivo; details: foliar, barley leaf segments cv. Hasso, inoculated 2 days after application, assessed 5-7 days after application, compared to untreated control
Procedure: Example B12: Pyrenophora teres/Barley/Leaf Disc Preventative (Net Blotch) Barley leaf segments cv. Hasso are placed on agar in a multiwell plate (24-well format) and sprayed with the formulated test compound diluted in water. The leaf segments are inoculated with a spore suspension of the fungus 2 days after application. The inoculated leaf segments are incubated at 20° C. and 65% relative humidity under a light regime of 12 h light/12 h darkness in a climate cabinet and the activity of a compound is assessed as disease control compared to untreated when an appropriate level of disease damage appears in untreated check leaf segments (5-7 days after application).

C[C@H]1c2sccc2[C@@](C)(c2cnn(C)c2)CN1C(=O)c1nnc(-c2ccc(F)cc2F)s1 (racemic) [Compound P-10, [5-(2,4-difluorophenyl)-1,3,4-thiadiazol-2-yl]-[rac-(4S,7R)-4,7-dimethyl-4-(1-methylpyrazol-4-yl)-5,7-dihydrothieno[2,3-c]pyridin-6-yl]methanone]
≥ 80%: inhibition of growth at 20 ppm [1] | inhibition of growth at 20 ppm [2] | pest or weed control at 200 ppm (Alternaria solani) | inhibition of growth at 20 ppm (Sclerotinia sclerotiorum) | pest or weed control at 200 ppm [3] | inhibition of growth at 20 ppm [4] | inhibition of growth at 20 ppm [5] | inhibition of growth at 20 ppm (Fusarium culmorum) | inhibition of growth at 20 ppm [6]

C[C@H]1c2sccc2[C@@](C)(c2cnn(C)c2)CN1C(=O)c1cc(-c2ccc(F)cc2F)on1 (racemic) [Compound P-12, [5-(2,4-difluorophenyl)isoxazol-3-yl]-[rac-(4S,7R)-4,7-dimethyl-4-(1-methylpyrazol-4-yl)-5,7-dihydrothieno[2,3-c]pyridin-6-yl]methanone]
≥ 80%: inhibition of growth at 20 ppm [1] | inhibition of growth at 20 ppm [2] | pest or weed control at 200 ppm (Alternaria solani) | inhibition of growth at 20 ppm (Sclerotinia sclerotiorum) | pest or weed control at 200 ppm [3] | inhibition of growth at 20 ppm [4] | inhibition of growth at 20 ppm [5] | inhibition of growth at 20 ppm [6]

Cn1cc(C2(C)CN(C(=O)c3cc(-c4ccc(F)cc4F)on3)Cc3sccc32)cn1 (centres unmarked) [Compound P-19, [5-(2,4-difluorophenyl)isoxazol-3-yl]-[4-methyl-4-(1-methylpyrazol-4-yl)-5,7-dihydrothieno[2,3-c]pyridin-6-yl]methanone]
≥ 80%: inhibition of growth at 20 ppm [1] | inhibition of growth at 20 ppm [2] | pest or weed control at 200 ppm (Alternaria solani) | inhibition of growth at 20 ppm (Sclerotinia sclerotiorum) | pest or weed control at 200 ppm [3] | pest or weed control at 200 ppm [7] | inhibition of growth at 20 ppm [4] | pest or weed control at 200 ppm (Pyrenophora teres) | inhibition of growth at 20 ppm [5]

Cn1cc(C2CN(C(=O)c3nnc(-c4ccc(F)cc4F)s3)Cc3sccc32)cn1 (centres unmarked) [Compound P-24, [5-(2,4-difluorophenyl)-1,3,4-thiadiazol-2-yl]-[4-(1-methylpyrazol-4-yl)-5,7-dihydro-4H-thieno[2,3-c]pyridin-6-yl]methanone]
≥ 80%: inhibition of growth at 20 ppm [1] | inhibition of growth at 20 ppm [2] | pest or weed control at 200 ppm (Alternaria solani) | inhibition of growth at 20 ppm (Sclerotinia sclerotiorum) | pest or weed control at 200 ppm [3] | inhibition of growth at 20 ppm [4] | pest or weed control at 200 ppm (Pyrenophora teres) | inhibition of growth at 20 ppm [5] | inhibition of growth at 20 ppm (Fusarium culmorum) | inhibition of growth at 20 ppm [6]

Cc1c(C2CN(C(=O)c3cc(-c4ccc(F)cc4F)on3)Cc3nnsc32)cnn1C (centres unmarked) [Compound P-27, [5-(2,4-difluorophenyl)isoxazol-3-yl]-[7-(1,5-dimethylpyrazol-4-yl)-6,7-dihydro-4H-thiadiazolo[4,5-c]pyridin-5-yl]methanone]
≥ 80%: inhibition of growth at 20 ppm [1] | pest or weed control at 200 ppm (Alternaria solani) | pest or weed control at 200 ppm [3] | pest or weed control at 200 ppm [7] | pest or weed control at 200 ppm (Pyrenophora teres) | inhibition of growth at 20 ppm [5] | inhibition of growth at 20 ppm [6]

Cc1c(C2CN(C(=O)c3cc(-c4ccc(F)cc4)on3)Cc3sccc32)cnn1C (centres unmarked) [Compound P-30, [4-(1,5-dimethylpyrazol-4-yl)-5,7-dihydro-4H-thieno[2,3-c]pyridin-6-yl]-[5-(4-fluorophenyl)isoxazol-3-yl]methanone]
≥ 80%: inhibition of growth at 20 ppm [1] | inhibition of growth at 20 ppm [2] | pest or weed control at 200 ppm (Alternaria solani) | inhibition of growth at 20 ppm (Sclerotinia sclerotiorum) | pest or weed control at 200 ppm [3] | inhibition of growth at 20 ppm [4] | pest or weed control at 200 ppm (Pyrenophora teres) | inhibition of growth at 20 ppm [5] | inhibition of growth at 20 ppm [6]

Cc1c(C2CN(C(=O)c3cc(-c4ccccc4F)on3)Cc3ccsc32)cnn1C (centres unmarked) [Compound P-35, [7-(1,5-dimethylpyrazol-4-yl)-6,7-dihydro-4H-thieno[3,2-c]pyridin-5-yl]-[5-(2-fluorophenyl)isoxazol-3-yl]methanone]
≥ 80%: pest or weed control at 200 ppm [7]
